Source: DBAASP
Converted amounts (≈) assume the structure as drawn. Values belong to the compound of their own block, whether it stands above or below them.

How the values were obtained:
Assay in all cases: ≥ marks a high value that may be exact or a test limit, other limits are often not marked, values filed in µg/mL are converted to µM
[1] = system: Botrytis cinerea
[2] = system: Escherichia coli ATCC 11775
[3] = system: Staphylococcus aureus ATCC 12600
[4] = system: Candida albicans ATCC 10231
[5] = system: Escherichia coli
[6] = system: Staphylococcus epidermidis
[7] = system: Pasteurella multocida
[8] = system: Leuconostoc lactis
[9] = system: Staphylococcus aureus
[10] = system: Listeria innocua
[11] = system: Micrococcus luteus
[12] = system: Bacillus cereus
[13] = system: Enterococcus faecalis
[14] = system: Streptococcus uberis
[15] = system: Pseudomonas aeruginosa
[16] = system: Micrococcus luteus CCM 144
[17] = system: Candida albicans F7-39/IDE99
[18] = system: Pseudomonas aeruginosa ATCC 27853
[19] = system: Staphylococcus aureus ATCC 43300
[20] = system: Bacillus subtilis 168
[21] = system: Escherichia coli B
[22] = system: Escherichia coli ATCC 25922
[23] = system: Salmonella enterica subsp. enterica serovar Typhimurium ATCC 14028
[24] = system: Bacillus subtilis ATCC 6633
[25] = system: Staphylococcus aureus ATCC 6538P
[26] = system: Shigella dysenteriae ATCC 9752
[27] = system: Micrococcus luteus ATCC 10240
[28] = system: Klebsiella pneumoniae ATCC 10031
[29] = system: Escherichia coli CVCC 1515
[30] = system: Staphylococcus epidermidis ATCC 12228
[31] = system: Escherichia coli UB1005
[32] = system: Escherichia coli K88
[33] = system: Escherichia coli BW25113

Structure (SMILES): CC[C@H](C)[C@H](NC(=O)CNC(=O)[C@H](CC(C)C)NC(=O)[C@@H](NC(=O)[C@@H]1CCCN1C(=O)[C@@H](N)CCC(=O)O)[C@@H](C)CC)C(=O)N[C@H](C(=O)N[C@H](C(=O)N[C@@H](CO)C(=O)N[C@@H](CC(C)C)C(=O)N[C@@H](CC(C)C)C(=O)N[C@@H](CCCCN)C(=O)N[C@@H](CO)C(=O)N[C@@H](CC(C)C)C(N)=O)[C@@H](C)O)[C@@H](C)CC [EPILGIITSLLKSL]
MIC [1]: 0.334 µM (≈ 0.5 µg/mL)
MIC [2]: ≥ 66.8 µM
MIC [3]: ≥ 66.8 µM
MIC [4]: 66.8 µM (≈ 99.9 µg/mL)

Structure (SMILES): CC[C@H](C)[C@H](NC(=O)[C@H](C)NC(=O)[C@H](CCC(=O)O)NC(=O)[C@H](Cc1cnc[nH]1)NC(=O)[C@@H](N)Cc1ccccc1)C(=O)N[C@@H](C)C(=O)N1CCC[C@H]1C(=O)N[C@H](C(=O)N[C@H](C(=O)N[C@@H](Cc1cnc[nH]1)C(=O)N[C@@H](C)C(=O)N[C@@H](C)C(=O)N[C@H](C(=O)N[C@@H](CCCCN)C(=O)N[C@@H](C)C(=O)N[C@@H](CC(C)C)C(=O)N[C@H](C(=O)NCC(=O)N[C@@H](Cc1ccccc1)C(=O)N[C@@H](CC(C)C)C(=O)NCC(N)=O)C(C)C)C(C)C)C(C)C)C(C)C [FHEAIAPVVHAAVKALVGFLG]
MIC [5]: > 46.6 µM
MIC [6]: ≥ 46.6 µM
MIC [7]: ≥ 46.6 µM
MIC [8]: 23.3 µM (≈ 50 µg/mL)
MIC [9]: > 46.6 µM
MIC [10]: ≥ 46.6 µM
MIC [11]: ≥ 46.6 µM
MIC [12]: ≥ 46.6 µM
MIC [13]: ≥ 46.6 µM
MIC [14]: ≥ 46.6 µM

Structure (SMILES): CC[C@H](C)[C@H](NC(=O)CN)C(=O)N[C@@H](CCSC)C(=O)N[C@@H](CO)C(=O)N[C@@H](CO)C(=O)N[C@@H](CC(C)C)C(=O)N[C@@H](CCSC)C(=O)N[C@@H](CCCCN)C(=O)N[C@@H](CCCCN)C(=O)N[C@@H](CC(C)C)C(=O)N[C@@H](CCCCN)C(=O)N[C@@H](CCCCN)C(=O)N[C@@H](Cc1cnc[nH]1)C(=O)N[C@H](C(=O)N[C@@H](C)C(=O)N[C@@H](CCCCN)C(N)=O)[C@@H](C)CC [GIMSSLMKKLKKHIAK]
MIC [15]: 17 µM (≈ 30.8 µg/mL)
MIC [6]: 10 µM (≈ 18.1 µg/mL)
MIC [16]: 3 µM (≈ 5.44 µg/mL)
MIC [17]: 12 µM (≈ 21.7 µg/mL)
MIC [9]: > 100 µM
MIC [18]: 6.4 µM (≈ 11.6 µg/mL)
MIC [19]: > 100 µM
MIC [20]: 7 µM (≈ 12.7 µg/mL)
MIC [21]: 26 µM (≈ 47.1 µg/mL)

Structure (SMILES): CC[C@H](C)[C@H](NC(=O)[C@H](CC(C)C)NC(=O)[C@H](CCCCN)NC(=O)[C@@H](NC(=O)[C@@H](NC(=O)[C@H](Cc1cnc[nH]1)NC(=O)[C@@H]1CCCN1C(=O)[C@H](CC(C)C)NC(=O)[C@@H](NC(=O)[C@H](CCCCN)NC(=O)[C@H](C)NC(=O)[C@H](Cc1c[nH]c2ccccc12)NC(=O)[C@H](CC(C)C)NC(=O)[C@H](CO)NC(=O)[C@H](C)NC(=O)[C@H](CCSC)NC(=O)CN)C(C)C)C(C)C)C(C)C)C(=O)N[C@@H](CCCCN)C(=O)O [GMASLWAKVLPHVVKLIK]
MIC [15]: 53.3 µM (≈ 106 µg/mL)
MIC [16]: 1.7 µM (≈ 3.38 µg/mL)
MIC [17]: 8.7 µM (≈ 17.3 µg/mL)
MIC [9]: 6 µM (≈ 11.9 µg/mL)
MIC [20]: 4.7 µM (≈ 9.36 µg/mL)
MIC [21]: 2.3 µM (≈ 4.58 µg/mL)

Structure (SMILES): CC[C@H](C)[C@H](NC(=O)[C@H](Cc1ccccc1)NC(=O)[C@H](CO)NC(=O)[C@H](CC(C)C)NC(=O)[C@@H](NC(=O)[C@H](CCCN=C(N)N)NC(=O)CN)[C@@H](C)CC)C(=O)N[C@@H](CCCCN)C(=O)NCC(=O)N[C@@H](CC(C)C)C(=O)N[C@@H](C)C(=O)N[C@@H](CCC(=O)O)C(=O)N[C@@H](Cc1cnc[nH]1)C(=O)N[C@@H](CC(C)C)C(N)=O [GRILSFIKGLAEHL]
MIC [1]: 9.65 µM (≈ 15 µg/mL)
MIC [2]: ≥ 64.4 µM
MIC [3]: ≥ 64.4 µM
MIC [4]: 6.44 µM (≈ 9.99 µg/mL)

Structure (SMILES): CC(C)C[C@H](NC(=O)[C@H](Cc1c[nH]c2ccccc12)NC(=O)[C@H](CCCCN)NC(=O)[C@H](CCCCN)NC(=O)[C@@H](N)CC(C)C)C(=O)N[C@@H](CCCCN)C(=O)N[C@@H](CCCCN)C(N)=O [LKKWLKK]
MIC [22]: > 212 µM
MIC [23]: > 212 µM
MIC [24]: ≥ 212 µM
MIC [18]: > 212 µM
MIC [25]: ≥ 212 µM
MIC [26]: ≥ 212 µM
MIC [27]: ≥ 106 µM
MIC [28]: ≥ 212 µM

Structure (SMILES): CC[C@H](C)[C@H](NC(=O)[C@H](C)NC(=O)CNC(=O)[C@H](Cc1c[nH]c2ccccc12)NC(=O)[C@H](CC(N)=O)NC(=O)[C@@H](N)CC(C)C)C(=O)N[C@@H](CC(C)C)C(=O)N[C@@H](CCCCN)C(=O)N[C@@H](CCCCN)C(=O)N[C@H](C(=O)N[C@H](C(=O)N[C@@H](CCCCN)C(N)=O)[C@@H](C)CC)[C@@H](C)CC [LNWGAILKKIIK]
MIC [15]: 43.3 µM (≈ 60.4 µg/mL)
MIC [16]: 2.7 µM (≈ 3.77 µg/mL)
MIC [17]: 6 µM (≈ 8.37 µg/mL)
MIC [9]: 7.3 µM (≈ 10.2 µg/mL)
MIC [20]: 2 µM (≈ 2.79 µg/mL)
MIC [21]: 4.3 µM (≈ 6 µg/mL)

The next lines start with the values.

MIC [23]: 64 µM (≈ 91.3 µg/mL)
MIC [29]: 8 µM (≈ 11.4 µg/mL)
MIC [18]: 16 µM (≈ 22.8 µg/mL)
MIC [30]: 16 µM (≈ 22.8 µg/mL)
MIC [31]: 8 µM (≈ 11.4 µg/mL)
MIC [32]: 4 µM (≈ 5.71 µg/mL)
Structure (SMILES): CC(C)C[C@H](NC(=O)[C@H](Cc1c[nH]c2ccccc12)NC(=O)[C@H](CCCCN)NC(=O)[C@H](C)NC(=O)[C@H](C)NC(=O)[C@H](C)NC(=O)[C@H](CCCCN)NC(=O)[C@H](C)NC(=O)[C@H](C)NC(=O)[C@H](C)NC(=O)[C@H](CCCCN)NC(=O)[C@H](Cc1c[nH]c2ccccc12)NC(=O)[C@@H](N)CC(C)C)C(N)=O [LWKAAAKAAAKWL]

MIC [33]: 4 µM (≈ 9.52 µg/mL)
Structure (SMILES): CC[C@H](C)[C@H](NC(=O)[C@@H]1CCCN1C(=O)[C@H](CCCN=C(N)N)NC(=O)[C@H](CCCN=C(N)N)NC(=O)[C@H](Cc1c[nH]c2ccccc12)NC(=O)[C@@H](N)CCCN=C(N)N)C(=O)N[C@@H](CCCN=C(N)N)C(=O)N[C@@H](CCCN=C(N)N)C(=O)N[C@@H](CCCN=C(N)N)C(=O)N1CCC[C@H]1C(=O)N[C@H](C(=O)N[C@@H](CCCN=C(N)N)C(=O)N1CCC[C@H]1C(=O)N1CCC[C@H]1C(=O)N[C@@H](Cc1ccccc1)C(=O)N[C@@H](Cc1ccc(O)cc1)C(=O)N[C@@H](CCCN=C(N)N)C(=O)O)[C@@H](C)CC [RWRRPIRRRPIRPPFYR]

MIC [33]: 4 µM (≈ 9.44 µg/mL)
Structure (SMILES): CC[C@H](C)[C@H](NC(=O)[C@@H]1CCCN1C(=O)[C@H](CCCN=C(N)N)NC(=O)[C@H](CCCN=C(N)N)NC(=O)[C@H](Cc1c[nH]c2ccccc12)NC(=O)[C@@H](N)CCCN=C(N)N)C(=O)N[C@@H](CCCN=C(N)N)C(=O)N[C@@H](CCCN=C(N)N)C(=O)N[C@@H](CCCN=C(N)N)C(=O)N1CCC[C@H]1C(=O)N[C@H](C(=O)N[C@@H](CCCN=C(N)N)C(=O)N1CCC[C@H]1C(=O)N1CCC[C@H]1C(=O)N[C@@H](Cc1c[nH]c2ccccc12)C(=O)N[C@@H](Cc1ccc(O)cc1)C(=O)N1CCC[C@H]1C(=O)O)[C@@H](C)CC [RWRRPIRRRPIRPPWYP]

MIC [23]: 8 µM (≈ 11.4 µg/mL)
MIC [29]: 4 µM (≈ 5.71 µg/mL)
MIC [18]: 16 µM (≈ 22.8 µg/mL)
MIC [30]: 8 µM (≈ 11.4 µg/mL)
MIC [31]: 4 µM (≈ 5.71 µg/mL)
MIC [32]: 2 µM (≈ 2.85 µg/mL)
Structure (SMILES): CC(C)C[C@H](NC(=O)[C@H](CCCCN)NC(=O)[C@H](C)NC(=O)[C@H](C)NC(=O)[C@H](C)NC(=O)[C@H](CCCCN)NC(=O)[C@H](C)NC(=O)[C@H](C)NC(=O)[C@H](C)NC(=O)[C@H](CCCCN)NC(=O)[C@H](CC(C)C)NC(=O)[C@@H](N)Cc1c[nH]c2ccccc12)C(=O)N[C@@H](Cc1c[nH]c2ccccc12)C(N)=O [WLKAAAKAAAKLW]
